{
  "source": "paper PMC6609550",
  "about": "“Blockade of the forward Na^+/Ca^2+ exchanger suppresses the growth of glioblastoma cells through Ca^2+‐mediated cell death” (British Journal of Pharmacology, 2019)",
  "type_in_all_cases": "cell-based, Human",
  "key": {"[1]": {"tested_on": "U87 cells", "experiment": "Annexin V–FITC/PI apoptosis assay of U87 cells", "conditions": "bepridil 25 μM 6–48 hr, CB‐DMB 3.5 μM 6–48 hr, KB‐R7943 25 μM 20 hr, BAPTA‐AM 10 μM 18 hr, CC‐930 10 μM, PD169316 10 μM", "method": "(§1) U87 cells were seeded in six‐well plates (Corning, Corning, NY, USA) with 1 × 10^6 cells per well and treated with NCX blockers, BAPTA‐AM, or MAPK inhibitors. Drug treatment was performed by the person who is blinded to the experimental groups. After treatment, cells were harvested in 15‐ml tubes and washed with cold sterile PBS. After being centrifuged, cells were fixed with 70% ethanol […] at 4°C for at least 1 hr. For propidium iodide (PI) staining, cells were washed one time with PBS and then were treated with ribonuclease A (RNase; 100 μg·ml^−1) for 30 min. PI (10 μg·ml^−1) was added, and stained cells were kept in the dark at 4°C until analysis. The number of cells analysed for each sample was 10,000 events. FACS analysis was performed using the Coulter CytoFlexS flow cytometer (Beckman Coulter, CA, USA), and the percentage of cells in the G0/G1, S, and G2/M phases was determined using cell cycle analysis software, ModFit LT 5.0 (Verity Software House, Topsham, ME, USA). For the apoptosis assay, cells were harvested and washed twice with cold PBS and resuspended at a density of 1 × 10^6 cells·ml^−1 in 100 μl of binding buffer containing 5 μl of Annexin V–FITC and 5 μl of PI working solution (100 μg·ml^−1). After incubation at room temperature for 15 min in the dark, 400 μl of binding buffer was added to each sample. Apoptosis was analysed by Coulter CytoFlexS flow cytometer (Beckman Coulter) for at least 10,000 events, and data were analysed with the software, CyExpert 2.0 (Beckman Coulter)."}, "[2]": {"tested_on": "U87 cells", "experiment": "Cell cycle assay (PI staining, flow cytometry) of U87 cells", "conditions": "bepridil 25 μM 6–24 hr, CB‐DMB 3.5 μM 6–24 hr, KB‐R7943 25 μM 18 hr, BAPTA‐AM 10 μM 18 hr, CC‐930 10 μM, PD169316 10 μM 18 hr", "method": "as §1"}, "[3]": {"tested_on": "[Na^+]i in U87 cells", "experiment": "Na+ imaging (ANG-2 AM) of U87 cells", "conditions": "bepridil 50 μM, KB‐R7943 50 μM, CB‐DMB 4 μM", "method": "Cells were cultured in 96‐well plates at 8 × 10^3 per well and loaded with the cell membrane‐permeable Ca^2+ dye Fluo‐4 AM (5 μM) in 100‐μl HEPES‐buffered solution for 50 min. The solution contained (mM): 135 NaCl, 3 KCl, 2 CaCl2, 1 MgCl2, 10 glucose, and 10 HEPES, supplemented with 1% FBS at pH 7.4. To prepare the Ca^2+‐free solution, 2‐mM CaCl2 was replaced with 1‐mM EGTA in the HEPES‐buffered solution. The 96‐well plate containing the Fluo‐4 AM‐loaded cells was mounted in a Leica TCS SP8 confocal system (Leica Microsystems, Wetzlar, Germany). The confocal microscope armed with 488‐nm laser light was employed to excite the dynamic fluorescent signals in time and synchronously, while test regents were added to cells. To do Na^+ imaging, Fluo‐4 AM was replaced with the cell membrane‐permeable Na^+ dye Asante NaTrium Green‐2 AM (ANG‐2 AM) at 5 μM, which was excited by 514‐nm laser light. Visual inspection and fluorescent imaging were carried out at room temperature. The imaging data were analysed with the software https://leica-las-af-lite.software.informer.com/ 2.5 (Leica). The imaging traces shown are representative of at least three separate experiments; 12–18 cells were imaged in each experiment."}, "[4]": {"tested_on": "U251 cells", "experiment": "Cell viability assay (Cell Counting Kit-8), U251", "conditions": "for IC50: 72 hr, CCK-8, mean ± SEM", "method": "(§2) Cell viability was determined by using a Cell Counting Kit‐8 (Dojindo, Japan). Briefly, cells were harvested from flasks and plated in 96‐well cell culture plates at 5 × 10^3 per well and cultured overnight. […] Control cells were treated with cell culture medium and measured at the same time point as treatment groups. CCK‐8 solution (10 μl) was added to each well of the 96‐well plates, and the cultures were incubated for 30 min at 37°C. Absorbance at 450 nm was measured using an automatic microplate reader (Molecular Devices, San Jose, CA, USA).\n(§3) Figure 2 Effect of the Na^+/Ca^2+ exchanger (NCX) blockers on viability of human glioblastoma cell lines. (a, b) Viability of adult glioblastoma cell lines (U87 and U251) after exposure to NCX blockers bepridil, KB‐R7943, SEA0400, SN‐6, or YM244769 at 0–100 μM for 72 hr. n = 5 independent tests per group. (c) Viability of paediatric glioblastoma cell line SF188 after 72‐hr incubation with the same NCX blockers at 0–100 μM. n = 5 independent tests per group. (d) For U87, U251, and SF188 cell lines, concentration of the NCX blockers required to produce half maximal inhibition (IC50: μM, mean ± SEM) of cell viability."}, "[5]": {"tested_on": "SF188 cells", "experiment": "Cell viability assay (Cell Counting Kit-8), SF188", "conditions": "for Effect on viability of paediatric glioblastoma cell line SF188 (in words): 0–100 μM; for Effect on viability of paediatric glioblastoma cell line SF188 (in words) / IC50: 72 hr; for IC50: CCK-8, mean ± SEM", "method": "as §2, §3"}},
  "data": [
    {"smiles": "CC(C)COCC(CN(Cc1ccccc1)c1ccccc1)N1CCCC1", "note": "(centres unmarked) [Bepridil, N‐benzyl‐N‐(3‐isobutoxy‐2‐pyrrolidin‐1‐yl‐propyl)aniline]", "values": [
      {"measurement": "Effect on apoptosis (Annexin V+ cells), compound alone", "setting": "[1]", "result": "time‐dependent increase of apoptotic (Annexin V^+) cells"},
      {"measurement": "Effect on cell cycle distribution, compound alone", "setting": "[2]", "result": "reduced the cell fraction in S phase and increased cells in G0/G1 phase in a time‐dependent manner"},
      {"measurement": "Effect on intracellular Na+ [Na+]i level", "setting": "[3]", "result": "did not change"},
      {"measurement": "Effect on growth (viability) of U251 cells", "setting": "[4]; 25 μM, 48 hr", "result": "markedly suppressed growth"},
      {"measurement": "IC50", "setting": "[4]; Homo sapiens, U-251", "result": "14.9 ± 1.1", "unit": "µM"},
      {"measurement": "Effect on viability of paediatric glioblastoma cell line SF188 (in words)", "setting": "[5]", "result": "suppressed by bepridil and KB‐R7943 in a dose‐dependent manner"},
      {"measurement": "Effect on growth (viability) of SF188 cells", "setting": "[5]; 25 μM, 48 hr", "result": "markedly suppressed growth"},
      {"measurement": "IC50", "setting": "[5]; Homo sapiens, SF-188", "result": "12.9 ± 1", "unit": "µM"}
    ]},
    {"smiles": "CS(=O)(=O)O.N=C(N)SCCc1ccc(OCc2ccc([N+](=O)[O-])cc2)cc1", "note": "[KB‐R7943, 2‐[4‐[(4‐nitrophenyl)methoxy]phenyl]ethyl ester carbamimidothioic acid methanesulfonate]", "values": [
      {"measurement": "Effect on apoptosis (Annexin V+ cells), compound alone", "setting": "[1]", "result": "caused G0/G1 arrest and apoptosis"},
      {"measurement": "Effect on cell cycle distribution, compound alone", "setting": "[2]", "result": "caused G0/G1 arrest and apoptosis"},
      {"measurement": "Effect on intracellular Na+ [Na+]i level", "setting": "[3]", "result": "slightly decreased"},
      {"measurement": "IC50", "setting": "[4]", "result": "29.2 ± 1.1", "unit": "µM"},
      {"measurement": "Effect on viability of paediatric glioblastoma cell line SF188 (in words)", "setting": "[5]", "result": "suppressed by bepridil and KB‐R7943 in a dose‐dependent manner"},
      {"measurement": "IC50", "setting": "[5]", "result": "17.3 ± 1", "unit": "µM"}
    ]}
  ]
}
